# Source: patent publication US7071359B1, “Neuropathy improvers containing nitrogenous compounds as the active ingredient” (Teijin Limited, priority 1999, dated 2006)
# Several values for one entry are separate records, joined by “and”; a condition that tells them apart may be missing. Equal values may be shown once.
# How the values were obtained:
# [1] = system: Mouse neuroblastoma Neuro2A cells; test: Promotion activity on the neurite outgrowth (1): proportion of cells with extended neurite; type: cell-based; conditions: for Proportion of cells with neurite (%) mean value ± standard error: 10 nM
# Description: (§1) Mouse neuroblastoma Neuro2A cells (obtained from DAINIPPON PHARMACEUTICAL CO., LTD.) were suspended with a density of 2.5×10^4 cells/mL in DMEM containing 10% FCS and 2 mM of Gln, and were plated on commercially available 24-well tissue culture plates with a quantity of 400 μL/well. After an overnight culture under the conditions where the temperature was 37° C., and the carbon dioxide content of the air was 5%, the media was exchanged to an identical media containing the test compound, and the culture was further continued for 24 hours. Then microscope photographs were taken with a 20× lens. Using the photographs, by counting the total number of cells in the field of view and the number of cells with extended neurite, the proportion of cells with extended neurite is calculated.
# [2] = system: Mouse neuroblastoma Neuro2A cells; test: Promotion activity on the neurite outgrowth (2): length of neurite per cell; type: cell-based
# Description: as §1
# The cells used and the performed culture method were identical to those in Reference example (1). After being cultured in a media containing the test compound for 24 hours, microscope photographs were taken with a 20× lens. […] Using image processing software, the area covered by the neurites were calculated, and, since the thickness used to mark the neurite was uniform, the analysis was performed considering that the area was proportional to the length, and allowing to compute the length of neurite per cell.
# [3] = system: Wistar male rats, model for Alzheimer's disease by the continuous intracerebroventricular administration of β-amyloid proteins; test: Step-through passive avoidance test in rats given β-amyloid protein continuously into the cerebral ventricle; type: in vivo, rat; conditions: Examples 44-47, β-amyloid protein alone 300 pmol/day, continuous intracerebroventricular by osmotic pump
# Source text: A step-through passive avoidance instrument made of two chambers separated by a guillotine door was used as the experimental apparatus. One chamber is an illuminated chamber made of transparent acrylic boards (floor: 15 cm×25 cm, height: 15 cm), the other chamber is a dark chamber made of black acryl boards (same dimensions). In addition, the floor of the dark chamber was equipped with a grid made of 4 mm diameter stainless steel pieces separated by 15 mm spacing. The grid was connected to an apparatus for delivering electric shocks (shock generator scrambler).
# First, the guillotine door was opened for one minute to let a rat freely explore the interior of the apparatus. Then, for acquisition trials, the door was closed and the rat was put into the illuminated chamber. 30 seconds later, the door was opened and immediately after the four legs of the rat were put inside the dark chamber, the door was closed and an electric shock was delivered. The strength of the electric shock was 0.5 mA for 5 seconds. The training was repeated until the rat remained in the illuminated chamber for more than 120 seconds when the rat was placed in the illuminated chamber immediately after the electric shock and the door was opened in a similar way. 24 hours after the acquisition trials, the rat was put into the illuminating chamber for retention trials, 30 seconds after, the guillotine door was opened, and the time taken for the four legs of the rat to enter the dark chamber was measured (step-through latency). The maximum observation time during retention trials was set to 300 seconds.
# (§2) 7 week old Wistar male rats (weight 220 to 250 g) were used (N=5 to 10).
# (§3) β-amyloid protein (1–42) was dissolved in 35% acetonitrile-0.1% trifluoroacetic acid in water, injected in a mini-osmotic pump, which had been set to deliver 300 pmol/day (volume: 230 μL, flow: 0.5 μL/hour), and connected to a dental syringe needle through a polyethylene tube. Animals in control group were connected to a pump to which β-amyloid protein (40–1) orvehicleonly was injected. […]
# [4] = system: Wistar male rats, model for Alzheimer's disease by the continuous intracerebroventricular administration of β-amyloid proteins; test: Y-maze test (spontaneous alternation behavior test) in rats given β-amyloid protein continuously into the cerebral ventricle; type: in vivo, rat; conditions: Examples 48-51, β-amyloid protein alone 300 pmol/day, continuous intracerebroventricular by osmotic pump
# Description: A Y-shaped maze made by connecting three arms having a length of 35 cm each, a wall height of 25 cm and a floor width of 10 cm at an angle of 120° with respect to each other. The apparatus was settled on the laboratory floor.
# A rat was placed at the extremity of one of the arms, was allowed to freely explore the maze for 8 minutes, and a record was taken of the order in which the arms were explored by the rat. By calling (A) the “Total arm entries”, and among them, by calling (B) the “Number of spontaneous alternations” which is the number of cases where 3 different arms were selected in sequence, the “Percentage of spontaneous alternations” was calculated with: (B/(A−2))×100.
# as §2
# as §3, with “injected. After anesthetizing the rats with pentobarbital (50 mg/Kg, i.p.), an incision was performed in each of their scalps, and following the brainatlas, holes were drilled in the cranium.” for “injected.”
# [5] = system: Bovine cerebral capillary endothelial cells; test: Permeability through the blood brain barrier: incorporation into bovine cerebral capillary endothelial cells; type: in vitro ADME; conditions: test compound 1 μM, 15 minutes, ethanol extraction, HPLC
# Description: Bovine cerebral capillary endothelial cells were cultured on a 100 mm diameter plate (coated with collagen I) to obtain confluency. The cells were cultured for 15 minutes in an incorporation media (141 mM NaCl, 4 mM KCl, 2 mM CaCl2, 1 mM […], 10 mM HEPES, 10 mM D-glucose) containing the test compound (1 μM), to incorporate the test compound into the cells. Then, the test compound incorporated into the cells was extracted with ethanol extraction, and quantified by HPLC. The rate of incorporation was calculated with the equation below. amount of test compound in the ethanol-extracted fraction/amount of test compound in the incorporation solution×100(%)
# [6] = listed as β-amyloid protein (1-42)
# [7] = listed as β-amyloid protein (1–42)
compound,measurement,setting,value
CCCC[C@](C)(O)C/C=C/[C@@H]1[C@H]2CC(CCCCCN(C)C)=C[C@H]2C[C@H]1O [Test compound E],Promotion activity on the neurite outgrowth (value relative to PGE1),"[1]; Example 56, 24 hours, 10 μM",1.58
CCCCC[C@H](O)/C=C/[C@H]1[C@H](O)CC(=O)[C@@H]1CCCCCCC(=O)O [PGE1],Proportion of cells with neurite (%) mean value ± standard error,"[1]; Example 52, 24 hours",26.0 ± 3.0%
same,Proportion of cells with neurite (%) mean value ± standard error,"[1]; Example 54, 24 hours",19.5 ± 1.9%
same,Promotion activity on the neurite outgrowth (value relative to PGE1),"[1]; Example 56, 24 hours, 10 μM",1.00
same,Promotion activity on the neurite outgrowth (value relative to PGE1),"[1]; Example 57, 24 hours, 10 μM",1.00
same,Promotion activity on the neurite outgrowth (value relative to PGE1),"[1]; Example 58, 24 hours, 10 μM",1.00
same,Length of neurite per single cell (pixel/cell) mean value ± standard error,"[2]; Example 53, 24 hours, 1 nM",14.2 ± 1.5 pixel/cell
same,Length of neurite per single cell (pixel/cell) mean value ± standard error,"[2]; Example 55, 24 hours, 100 nM",5.7 ± 1.03 pixel/cell
β-amyloid protein(1-42): β-amyloid protein (1–42) given continuously into the cerebral ventricle by mini-osmotic pump to lower learning and memory in the rat model,Time taken to move into the dark chamber during retention trials mean value ± standard error,[3],140.2 ± 53.8 (n = 5) seconds and 132.8 ± 58.1 (n = 5) seconds
same,Time taken to move into the dark chamber during retention trials mean value ± standard error,[3]; [6],191.7 ± 49.0 s
same,Time taken to move into the dark chamber during retention trials mean value ± standard error,[3]; [7],a decrease in the ability of learning and memory was observed
same,Occurrence of spontaneous alternation behavior mean value ± standard error,[4]; [6],65.6 ± 3.4% and 66.5 ± 4.7% and 59.1 ± 3.0%
same,Occurrence of spontaneous alternation behavior mean value ± standard error,[4]; [7],a decrease in the ability of learning and memory was observed
Cc1cccc(C[C@@H](O)/C=C/[C@@H]2[C@H]3CC(CCCCCN4CCCC4)=C[C@H]3C[C@H]2O)c1 [Test compound C],Promotion activity on the neurite outgrowth (value relative to PGE1),"[1]; Example 56, 24 hours, 10 μM",1.15
Cc1cccc(C[C@H](O)/C=C/[C@@H]2[C@H]3CC(CCCCCN(C)C)=C[C@H]3C[C@H]2O)c1 [Test compound D],Promotion activity on the neurite outgrowth (value relative to PGE1),"[1]; Example 56, 24 hours, 10 μM",1.31
CCCC[C@](C)(O)C/C=C/[C@@H]1[C@H]2CC(CCCCC(=O)O)=C[C@H]2C[C@H]1O [Test compound B],Rate of incorporation into bovine capillary endothelial cells (mean value of two experiments),[5]; Example 61,below detection limit
same,Rate of incorporation into bovine capillary endothelial cells (mean value of two experiments),[5]; Example 62,below detection limit
same,Promotion activity on the neurite outgrowth (value relative to PGE1),"[1]; Example 56, 24 hours, 10 μM",1.63
same,Promotion activity on the neurite outgrowth (value relative to PGE1),"[1]; Example 57, 24 hours, 0.1 μM (PGE1 at 10 μM)",1.12
